Experimental findings from patent publication US20100278837A1, “Compositions And Methods For Reducing Cancer And Inflammation” (The Regents of the University of California, priority 2009, published 2010) are described below.

As usually defined, the IC50 is the concentration that inhibits the measured activity by half.

In one assay the test system is LLC tumours. Briefly: Subcutaneous LLC tumour growth, inflammation and angiogenesis in treated mice. Type of assay: in vivo, C57BL/6 mice. The following applies: daily dosing. How it is done: LLC cells were obtained from the American Type Culture Collection (ATCC) and Panc02 pancreatic ductal carcinoma cells were obtained from the NCI DCTDC Tumour Repository. The abdominal cavities of immunocompetent C57Bl6 mice and integrin α4Y991A knockin mice^30 were opened and the tails of the pancreas were exteriorized. One million Panc02 cells were injected into the pancreatic tail, the pancreas was placed back into the abdominal cavity and the incision was closed. Tumours were excised after 30 days. 5×10^5 LLC cells were injected subcutaneously or by intravenous tail vein injection into C57Bl6 or integrin α4Y991A mice. Tumours were excised at 7, 14 or 21 days, cryopreserved in O.C.T., lysed for RNA purification or collagenase-digested for flow cytometric analysis of CD11b and Gr1 expression. […] Tumours were harvested, weighed and further analyzed on day 8. […]
PI3-kinase γ inhibitor studies: C57BL/6 mice were subcutaneously implanted on d1 with 5×10^5 LLC or by intradermal injection with 5×10^5 B16 melanoma cells. […] Tumour volumes, weights and blood vessel densities, as well as myeloid cell densities were measured. […] Tumours were excised, weighed and analyzed after 3 weeks. […] Mice were sacrificed at 9 weeks of age and tumours were analyzed.

Assay [1] has as its system CD11b+ myeloid cell adhesion to VCAM-1. Nature of the assay: Chemoattractant-stimulated CD11b+ myeloid cell adhesion to VCAM-1 / endothelial cells (Example 9 adhesion assay). In kind it is cell-based, mouse. The procedure:
1×10^5 calcein-AM labelled human CD11b+ cells isolated from buffy coats from the San Diego Blood Bank or murine CD11b+ cells isolated from naïve (non-tumour bearing) or tumour-bearing mice were incubated on HUVEC monolayers or on plastic plates coated with 5 μg/ml recombinant soluble VCAM-1 or ICAM-1 (R&D Systems) for 30 minutes at 37° C. with humidity in the presence of LLC Tumour Conditioned Medium (TCM) or DMEM containing 200 ng/ml SDF1α, IL1β, IL6, TNFα or VEGF-A (R&D Systems). (SDF-1α and IL-1β were initially titrated to determine the minimum dose required to achieve near maximal stimulation of adhesion). TCM was prepared by incubating LLC cells in serum-free media for 18 h and filtering through 0.22 μm filters. After washing three times with warmed medium, adherent cells were quantified using a plate fluorimeter (GeniosPro, TECAN).
In some adhesion assays, cells were also incubated in 25 μg/ml function-blocking anti-integrin α4β1 (rat anti-murine, PS2 or mouse anti-human, HP2/1, gifts from Biogen-Idec), rat-anti-αM (anti-CD11b, M1/70) and isotype control antibodies (rat IgG2κ or mouse IgG1) or with 0.1 nM-10 μM doses of the small molecule inhibitor of integrin α4, ELN476063 (IC50=10 nM), a gift from Elan^14.
Additionally, labelled cells were incubated with HUVEC and rsVCAM coated plates in the presence of […] or SDF-1α and 1-10 μM inhibitors: pan-PI3 kinase inhibitors ([…], wortmannin), PI3-kinase α inhibitors (PI3K75, PIK2alpha, PI103), PI3-kinase β inhibitor (TGX221), PI3-kinase γ inhibitors (TG100-115, AS605240, AS604850), inert control, PLC inhibitor (U73122), geranylgeranyltransferase (Rap1-selective) inhibitors (GGTI-2147 and GGTI-298) or farnesyltransferase (Ras-selective) inhibitor (FTI-277), Akt inhibitors (Inhibitor X and peptide 18), mTOR inhibitor (rapamycin), ROCK inhibitor (Y27632), MEK inhibitor (PD98059), p38 inhibitor (SB202190), tyrosine kinase inhibitor (genestein) and PKA inhibitors (H89, KT5720). LY294002, wortmannin, genestein, U73122, GGTI-2147, GGTI-298, FTI-277, Y27632, PD98059, SB202190, H89 and KT5720 were from Calbiochem. PIK2alpha, PI103, AS605240, AS604850 and TGX221 were from Echelon. TG100-115 was prepared as described^25-26. To titrate the effect of various signalling protein inhibitors on myeloid cell adhesion stimulated by IL-1β or SDF-1α, cells were incubated in 1 nm to 100 μM PI3-kinase inhibitors TG00020 (a pan-PI3-kinase inhibitor), PI3-kinase α inhibitor (PI3Kalpha2) PI3-kinase β inhibitor (TGX221), PI3-kinase γ inhibitors (TG100-115, AS605240), an inert chemically matched control, farnesyltrasnferase inhibitors and geranylgeranyltransferase inhibitors. IC50s for GGTI and FTI were 1 μM. […] Adherent GFP+ cells were automatically quantified using MetaMorph software (Molecular Devices Software).

In another assay the test system is CD11b+ myeloid cells. Briefly: Adoptive transfer: arrest of pretreated CD11b+ myeloid cells in LLC tumours. The following applies: adoptively transferred into LLC tumour-bearing mice. Type of assay: in vivo. The procedure: Alternatively, 5×10^6 CFSE labelled CD11b+ cells from C57BL/6, α4Y991A, and PI3-kinase γ−/− mice were injected intravenously into mice bearing subcutaneous (5×10^5) d14 LLC tumours. In other studies, CD11b+ cells from WT mice were treated for 1 h with 1 μM PI3-kinase α inhibitor (PI3K75), PI3-kinase β inhibitor (TGX221), PI3-kinase γ inhibitor (TG100-115) and an inert control or with 10 μM PLC inhibitor (U73122), geranylgeranyltransferase inhibitor (GGT2147) or farnesyltransferase inhibitor (FTI-277) and then injected intravenously into mice bearing subcutaneous (5×10^5) d14 LLC tumours.
In other studies, K, N and H Ras, Rap1, PI3Kα, PI3Kβ, PI3Kγ, PI3Kδ, integrin α4 and integrin αM were knocked down by siRNA transfection of CD11b+ cells as described above. 48 h later, cells were labeled with CFSE and injected into mice with d14 LLC tumours (1×10^6 cells). Fluorescent cells accumulating in tumours and spleens were quantified 2 h and 24 h later by excising tissues, preparing single cell suspensions and performing FACs analysis at 488 nm. No differences were observed between untreated and non-silencing siRNA treated cells.

Each structure is given as a SMILES string.

Consider `O=C1NC(=O)/C(=C\c2ccc3nccnc3c2)S1` [AS605240], for which, in the assay with LLC tumours, the LLC tumour growth result is listed as “suppressed tumour growth at similar doses”.

Consider `COC(=O)[C@H](CCSC)NC(=O)c1ccc(NC[C@@H](N)CS)cc1-c1ccccc1` [FTI], for which, in assay [1] (chemokine-stimulated myeloid cells), the “adhesion, ligand binding and integrin conformational changes” value is “blocked adhesion, ligand binding and integrin conformational changes”. For the same compound, the concentration for half-maximal inhibition (IC50) in assay [1] (stimulated by IL-1β or SDF-1α, read-out: IC50, myeloid cell adhesion) was 1000 nM. In addition, the “myeloid cell arrest in tumours in vivo” value in the assay with CD11b+ myeloid cells is on record as “suppressed myeloid cell arrest in tumours in vivo”.
